Measurements reported in patent US10206394B2, “Herbicidal compounds” (Syngenta Participations AG, priority 2014, dated 2019).
Like-named read-outs stand apart in the source and are kept apart here.

What was measured:
Assay in all cases: Glasshouse assay for herbicidal activity (pre- and post-emergence), percentage phytotoxicity
Format in all cases: in vivo
[1] = system: Alopecurus myosuroides (ALOMY); conditions: Alopecurus myosuroides, 250 g/ha, visual assessment (100%=total damage, 0%=no damage)
Protocol: (§1) Test—Glasshouse Assay for Herbicidal Activity
(§2) Seeds of a variety of monocotyledonous and dicotyledonous test plants are sown in standard soil in pots. The plants are cultivated for one day (for pre-emergence (PRE)) or for about 12 days (for post-emergence (POST)) under controlled conditions in a glasshouse (warm climate species at 24/18° C., cool climate species at 20/16° C., both at day/night; 16 hours light; 65% humidity).
(§3) The test plants are then grown on, in a glasshouse (greenhouse) under controlled conditions (warm climate species at 24/18° C., cool climate species at 20/16° C., both at day/night; 16 hours light; 65% humidity) and are watered twice daily. 15 days after application of the test herbicide (15 DAA) (for post-emergence), and 20 days after application of the test herbicide (20 DAA) (for pre-emergence), the test plants are evaluated visually, and an assessed percentage phytotoxicity score is given for each herbicidal application on each plant species (with 100%=total damage to plant; 0%=no damage to plant).
(§4) The plant species tested are as follows: Alopecurus myosuroides (ALOMY), Avena fatua (AVEFA), Lolium perenne (LOLPE), Echinochloa crus-galli (ECHCG).

[2] = system: Avena fatua (AVEFA); conditions: Avena fatua, 250 g/ha, visual assessment (100%=total damage, 0%=no damage)
Protocol: as §1, §2, §3, §4

[3] = system: Echinochloa crus-galli (ECHCG); conditions: Echinochloa crus-galli, 250 g/ha, visual assessment (100%=total damage, 0%=no damage)
Protocol: as §1, §2, §3, §4

[4] = system: Lolium perenne (LOLPE); conditions: Lolium perenne, 250 g/ha, visual assessment (100%=total damage, 0%=no damage)
Protocol: as §1, §2, §3, §4

[5] = post-emergence, 360 h, post-emergence, 15 DAA, read-out: Post-emergence herbicidal activity (percentage phytotoxicity) ALOMY POST
[6] = pre-emergence, 480 h, pre-emergence, 20 DAA, read-out: Pre-emergence herbicidal activity (percentage phytotoxicity) ALOMY PRE
[7] = post-emergence, 360 h, post-emergence, 15 DAA, read-out: Post-emergence herbicidal activity (percentage phytotoxicity) AVEFA POST
[8] = pre-emergence, 480 h, pre-emergence, 20 DAA, read-out: Pre-emergence herbicidal activity (percentage phytotoxicity) AVEFA PRE
[9] = post-emergence, 360 h, post-emergence, 15 DAA, read-out: Post-emergence herbicidal activity (percentage phytotoxicity) ECHCG POST
[10] = pre-emergence, 480 h, pre-emergence, 20 DAA, read-out: Pre-emergence herbicidal activity (percentage phytotoxicity) ECHCG PRE
[11] = post-emergence, 360 h, post-emergence, 15 DAA, read-out: Post-emergence herbicidal activity (percentage phytotoxicity) LOLPE POST
[12] = pre-emergence, 480 h, pre-emergence, 20 DAA, read-out: Pre-emergence herbicidal activity (percentage phytotoxicity) LOLPE PRE

Structure (SMILES) | pest or weed control at 250 g/ha [1, 5] [%] | pest or weed control at 250 g/ha [1, 6] [%] | pest or weed control at 250 g/ha [2, 7] [%] | pest or weed control at 250 g/ha [2, 8] [%] | pest or weed control at 250 g/ha [3, 9] [%] | pest or weed control at 250 g/ha [3, 10] [%] | pest or weed control at 250 g/ha [4, 11] [%] | pest or weed control at 250 g/ha [4, 12] [%]
Cc1cc(C)c(C2C(=O)CC(CC(=O)NCc3cccc(Br)c3)C2=O)c(C)c1 (centres unmarked) [Compound B23] | 60 | 70 | 70 | 60 | 90 | 90 | 90 | 100
Cc1cc(-c2ncc(Cl)s2)cc(C)c1C1C(=O)CC(CC(=O)NC(C)(C)C)C1=O (centres unmarked) [Compound B24] | 90 | 80 | 80 | 80 | 100 | 100 | 90 | 100
Cc1cc(C)c(C2CC(=O)C(CC(=O)NC(C)CC(C)C)C2=O)c(C)c1 (centres unmarked) [Compound B25] | 80 | 90 | 80 | 70 | 90 | 90 | 80 | 90
Cc1cc(C)c(C2C(=O)CC(CC(=O)NC(C)C(C)(C)C)C2=O)c(C)c1 (centres unmarked) [Compound B26] | 70 | 60 | 60 | 20 | 60 | 70 | 60 | 70
C=CCC(C)(C)NC(=O)CC1CC(=O)C(c2c(C)cc(C)cc2C)C1=O (centres unmarked) [Compound B27] | 70 | 30 | 70 | 20 | 40 | 60 | 70 | 60
Cc1cc(C)c(C2C(=O)CC(CC(=O)NC(C)CC3CCCC3)C2=O)c(C)c1 (centres unmarked) [Compound B28] | 50 | 50 | 60 | 50 | 70 | 60 | 50 | 80
Cc1cc(C)c(C2C(=O)CC(CC(=O)NC(C)(C)c3ccccc3)C2=O)c(C)c1 (centres unmarked) [Compound B29] | 70 | 30 | 60 | 10 | 70 | 80 | 70 | 80
Cc1cc(-c2nc(C#N)cs2)cc(C)c1C1C(=O)CC(CC(=O)NC(C)(C)C)C1=O (centres unmarked) [Compound B30] | 70 | 60 | 90 | 70 | 80 | 70 | 30 | 70
Cc1cc(C)c(C2C(=O)CC(CC(=O)NC(C)C3CC3)C2=O)c(C)c1 (centres unmarked) [Compound B31] | 80 | 100 | 80 | 70 | 80 | 90 | 80 | 90
Cc1cc(C)c(C2C(=O)CC(CC(=O)NC3(C)CCC3)C2=O)c(C)c1 (centres unmarked) [Compound B32] | 70 | 90 | 40 | 0 | 80 | 80 | 50 | 90
